Data reported in PubChem BioAssay AID296 (DTP/NCI, 2004).
Where “and” joins values, the source holds several entries; their conditions need not be identical. Equal values may be shown once. Inconclusive results are not listed.

Test system: MX-1 breast xenograft, nude mice, tumor weight T/C
Experiment: NCI In Vivo Anticancer Drug Screen. Data for tumor model Human Mammary Carcinoma MX-1 Xenograft (intrarenal inoculation) in NU/NU Swiss (nude) mice
Conditions: endpoint: mean tumor weight change, higher = larger tumour
Outline: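 Mice carrying the implanted tumor receive either test agent or vehicle. Tumor size or survival is then recorded for both groups. Results are stated as the treated-to-control quotient.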

[1] = dose: 300.0 mg/kg/injection, schedule: Q04DX003 (sc), vehicle: water
[2] = dose: 600.0 mg/kg/injection, schedule: Q04DX003 (sc), vehicle: water
[3] = dose: 1200.0 mg/kg/injection, schedule: Q04DX003 (sc), vehicle: water
[4] = dose: 600.0 mg/kg/injection, schedule: Q04DX003 (sc), vehicle: saline with Tween-80
[5] = dose: 300.0 mg/kg/injection, schedule: Q04DX003 (sc), vehicle: Klucel (hydroxypropylcellulose) (HPC)
[6] = dose: 600.0 mg/kg/injection, schedule: Q04DX003 (sc), vehicle: Klucel (hydroxypropylcellulose) (HPC)
[7] = dose: 1200.0 mg/kg/injection, schedule: Q04DX003 (sc), vehicle: Klucel (hydroxypropylcellulose) (HPC)
[8] = dose: 2400.0 mg/kg/injection, schedule: Q04DX003 (sc), vehicle: Klucel (hydroxypropylcellulose) (HPC)
[9] = dose: 300.0 mg/kg/injection, schedule: Q04DX003 (sc), vehicle: saline with Tween-80
[10] = dose: 100.0 mg/kg/injection, schedule: Q04DX003 (sc), vehicle: saline
[11] = dose: 100.0 mg/kg/injection, schedule: Q01DX010 (sc), vehicle: saline

## Nc1nc2c(ncn2C2OC(CO)C(O)C2O)c(=O)[nH]1.Nc1nc2c(ncn2C2OC(CO)C(O)C2O)c(=O)[nH]1.[NH2-].[NH2-].[Pt+2] (stereo unspecified)
[1]
  T/C: 68 % of control
[2]
  T/C: 22 % of control
[3]
  T/C: 3 % of control

## CC1(C)OC1CS(=O)c1ccccc1 (stereo unspecified)
[4]
  T/C: 121 % of control

## C=C[Si]12OCCN(CCO1)CCO2
[5]
  T/C: 87 % of control
[6]
  T/C: 79 % of control
[7]
  T/C: 106 % of control
[8]
  T/C: 89 % of control

## O=[N+]([O-])c1ccc(N(CCO)CCO)c2c1no[n+]2[O-]
dose: 12.5 mg/kg/injection, schedule: Q04DX003 (ip), vehicle: saline with Tween-80
  T/C: 101 % of control
dose: 25.0 mg/kg/injection, schedule: Q04DX003 (ip), vehicle: saline with Tween-80
  T/C: 108 % of control
dose: 50.0 mg/kg/injection, schedule: Q04DX003 (ip), vehicle: saline with Tween-80
  T/C: 75 % of control

## Cc1c(N)nc([C@H](CC(N)=O)NC[C@H](N)C(N)=O)nc1C(=O)N[C@H](C(=O)N[C@H](C)[C@@H](O)CC(=O)N[C@H](C(=O)NC(O[C@@H]1O[C@@H](C)[C@@H](N)[C@@H](O)[C@H]1O)C(O)c1nc(-c2nc(C(=O)NCCCCN)cs2)cs1)[C@@H](C)O)[C@@H](O[C@@H]1O[C@@H](CO)[C@@H](O)[C@H](O)[C@@H]1O[C@H]1O[C@H](CO)[C@@H](O)[C@H](OC(N)=O)[C@@H]1O)c1c[nH]cn1 (stereo partly specified)
dose: 4.0 mg/kg/injection, schedule: Q04DX003 (sc), vehicle: saline
  T/C: 120 % of control
dose: 8.0 mg/kg/injection, schedule: Q04DX003 (sc), vehicle: saline
  T/C: 64 % of control
dose: 16.0 mg/kg/injection, schedule: Q04DX003 (sc), vehicle: saline
  T/C: 64 % of control
dose: 32.0 mg/kg/injection, schedule: Q04DX003 (sc), vehicle: saline
  T/C: 47 % of control

## Cn1cnc([N+](=O)[O-])c1SCC(=O)O
dose: 300.0 mg/kg/injection, schedule: Q04DX003 (sc), vehicle: saline
  T/C: 80 % of control
dose: 600.0 mg/kg/injection, schedule: Q04DX003 (sc), vehicle: saline
  T/C: 43 % of control
dose: 1200.0 mg/kg/injection, schedule: Q04DX003 (sc), vehicle: saline
  T/C: 88 % of control
dose: 2400.0 mg/kg/injection, schedule: Q04DX003 (sc), vehicle: saline
  T/C: 71 % of control

## Nc1n[n+](-c2ccc(Cl)cc2)no1
dose: 25.0 mg/kg/injection, schedule: Q04DX003 (sc), vehicle: water
  T/C: 93 % of control
dose: 50.0 mg/kg/injection, schedule: Q04DX003 (sc), vehicle: water
  T/C: 102 % of control

## C[Si](C)(C)OSc1ccccc1[N+](=O)[O-]
[5]
  T/C: 92 % of control
[6]
  T/C: 95 % of control
[7]
  T/C: 80 % of control
[8]
  T/C: 107 % of control

## CC(C)[C@](O)(C(=O)OCC1=CCN2CC[C@@H](O)[C@@H]12)[C@H](C)O
[1]
  T/C: 56 % of control
[2]
  T/C: 65 % of control
[3]
  T/C: 53 % of control
dose: 2400.0 mg/kg/injection, schedule: Q04DX003 (sc), vehicle: water
  T/C: 51 % of control

## COCCCNC1=C(C#N)C(=O)NC(c2cccc([N+](=O)[O-])c2)S1 (stereo unspecified)
[9]
  T/C: 96 % of control
[4]
  T/C: 101 % of control
dose: 1200.0 mg/kg/injection, schedule: Q04DX003 (sc), vehicle: saline with Tween-80
  T/C: 56 % of control
dose: 2400.0 mg/kg/injection, schedule: Q04DX003 (sc), vehicle: saline with Tween-80
  T/C: 95 % of control

## C=C(NC(=O)C(=C)NC(=O)c1csc(C2=NC3c4csc(n4)C4NC(=O)c5csc(n5)C(C(C)(O)C(C)O)NC(=O)C5CSC(=N5)/C(=C/C)NC(=O)C(C(C)O)NC(=O)c5csc(n5)C3(CC2)NC(=O)C(C)NC(=O)C(=C)NC(=O)C(C)NC(=O)C(C(C)CC)NC2C=Cc3c(C(C)O)cc(nc3C2O)C(=O)OC4C)n1)C(N)=O (stereo unspecified)
dose: 400.0 mg/kg/injection, schedule: Q01DX010 (sc), vehicle: Klucel (hydroxypropylcellulose) (HPC)
  T/C: 73 % of control
dose: 800.0 mg/kg/injection, schedule: Q01DX010 (sc), vehicle: Klucel (hydroxypropylcellulose) (HPC)
  T/C: 98 % of control
dose: 1600.0 mg/kg/injection, schedule: Q01DX010 (sc), vehicle: Klucel (hydroxypropylcellulose) (HPC)
  T/C: 81 % of control
dose: 3200.0 mg/kg/injection, schedule: Q01DX010 (sc), vehicle: Klucel (hydroxypropylcellulose) (HPC)
  T/C: 117 % of control

## C1CN(P2(N3CC3)=NP(N3CC3)(N3CC3)=NP(N3CC3)(N3CC3)=N2)CCO1 (stereo unspecified)
dose: 12.5 mg/kg/injection, schedule: Q04DX003 (sc), vehicle: saline
  T/C: 36 % of control
dose: 25.0 mg/kg/injection, schedule: Q04DX003 (sc), vehicle: saline
  T/C: 9 % of control
dose: 50.0 mg/kg/injection, schedule: Q04DX003 (sc), vehicle: saline
  T/C: -77 % of control and -68 % of control (2×)
[10]
  T/C: -93 % of control

## N/C=N/O
[11]
  T/C: 107 % of control
dose: 200.0 mg/kg/injection, schedule: Q01DX010 (sc), vehicle: saline
  T/C: 53 % of control
dose: 400.0 mg/kg/injection, schedule: Q01DX010 (sc), vehicle: saline
  T/C: 81 % of control

## CCC(C(=O)O)C(=O)O.[NH-]CC1CCCC[N-]1.[Pt+2]
[10]
  T/C: 51 % of control
dose: 200.0 mg/kg/injection, schedule: Q04DX003 (sc), vehicle: saline with Tween-80
  T/C: -98 % of control
dose: 200.0 mg/kg/injection, schedule: Q04DX003 (sc), vehicle: saline
  T/C: 20 % of control
[9]
  T/C: -98 % of control
dose: 300.0 mg/kg/injection, schedule: Q04DX003 (sc), vehicle: suspension in saline
  T/C: 14 % of control and 26 % of control
dose: 400.0 mg/kg/injection, schedule: Q04DX003 (sc), vehicle: saline with Tween-80
  T/C: -100 % of control
dose: 400.0 mg/kg/injection, schedule: Q04DX003 (sc), vehicle: saline
  T/C: 2 % of control
dose: 400.0 mg/kg/injection, schedule: Q04DX003 (sc), vehicle: suspension in saline
  T/C: 28 % of control and 32 % of control
dose: 500.0 mg/kg/injection, schedule: Q04DX003 (sc), vehicle: saline with Tween-80
  T/C: -100 % of control
dose: 500.0 mg/kg/injection, schedule: Q04DX003 (sc), vehicle: suspension in saline
  T/C: 3 % of control and 20 % of control

## O=CC(CO)CC(C=O)n1cnc2c(=O)[nH]cnc21 (stereo unspecified)
dose: 150.0 mg/kg/injection, schedule: Q04DX003 (ip), vehicle: saline
  T/C: 62 % of control
dose: 300.0 mg/kg/injection, schedule: Q04DX003 (ip), vehicle: saline
  T/C: 57 % of control
dose: 600.0 mg/kg/injection, schedule: Q04DX003 (ip), vehicle: saline
  T/C: 30 % of control

## CNC(=O)OCc1c(COC(=O)NC)c(-c2ccccc2)n(C)c1-c1ccccc1
dose: 100.0 mg/kg/injection, schedule: Q04DX003 (sc), vehicle: distilled water + Tween-80
  T/C: 121 % of control
dose: 200.0 mg/kg/injection, schedule: Q04DX003 (sc), vehicle: distilled water + Tween-80
  T/C: 51 % of control
dose: 400.0 mg/kg/injection, schedule: Q04DX003 (sc), vehicle: distilled water + Tween-80
  T/C: 78 % of control
dose: 800.0 mg/kg/injection, schedule: Q04DX003 (sc), vehicle: distilled water + Tween-80
  T/C: 74 % of control

## COc1cccc2c1C(=O)c1c(O)c3c(c(O)c1C2=O)C[C@@](O)(/C(C)=N/NC(=O)c1ccccc1)C[C@@H]3OC1CC(N)C(O)C(C)O1 (stereo partly specified)
dose: 18.75 mg/kg/injection, schedule: Q04DX003 (sc), vehicle: water
  T/C: 73 % of control
dose: 37.5 mg/kg/injection, schedule: Q04DX003 (sc), vehicle: water
  T/C: 25 % of control

## CCN(CC)CCNc1ccc(C)c2sc3ccccc3c(=O)c12
dose: 50.0 mg/kg/injection, schedule: Q01DX010 (sc), vehicle: saline
  T/C: 79 % of control
[11]
  T/C: 53 % of control

## CCN(CC)CCCNc1nccc2c(C)c3[nH]c4ccncc4c3cc12
dose: 5.0 mg/kg/injection, schedule: Q01DX010 (sc), vehicle: other
  T/C: 166 % of control
dose: 10.0 mg/kg/injection, schedule: Q01DX010 (sc), vehicle: other
  T/C: 88 % of control

## CCc1c(CC(=O)O)c2cc(C)ccc2n1Cc1ccc(Cl)cc1
[5]
  T/C: 71 % of control
[6]
  T/C: 86 % of control
[7]
  T/C: 51 % of control
[8]
  T/C: 49 % of control

## CN(C)CCN1C(=O)c2cccc3cc(N)cc(c23)C1=O
dose: 16.0 mg/kg/injection, schedule: Q04DX003 (sc), vehicle: saline with Tween-80
  T/C: 80 % of control
dose: 32.0 mg/kg/injection, schedule: Q04DX003 (sc), vehicle: saline with Tween-80
  T/C: 78 % of control

## O=C(O)CSc1c(Cl)c(=O)oc2ccc(Cl)cc12
dose: 75.0 mg/kg/injection, schedule: Q04DX003 (sc), vehicle: Klucel (hydroxypropylcellulose) (HPC)
  T/C: 87 % of control
dose: 150.0 mg/kg/injection, schedule: Q04DX003 (sc), vehicle: Klucel (hydroxypropylcellulose) (HPC)
  T/C: 61 % of control and 75 % of control
[5]
  T/C: 54 % of control and 62 % of control
